Reference: US11738095B2, “Cyanine-containing compounds for cancer imaging and treatment” (Emory University, priority 2007, dated 2023)

Experiments:
C4-2 = experiment: effect of MHI-25 on C4-2 cells in culture (FIG. 9 top); assay type: cell-based, human; settings: for cell death in culture: 24 hrs
Excerpt: To confirm the ability of other compounds to exert cytotoxicity against the growth of human tumors in vitro and in vivo, the effect of MHI-25 on the growth of C4-2 tumors in vitro (FIG. 9 top panel) and in mice (FIG. 9 bottom panel) was studied.

HepG2 = experiment: uptake of IR783 in cell lines: liver; assay type: cell-based, human
Excerpt: (§1) The uptake of IR783 was studied and confirmed in a variety of human cell lines as shown below: […]

[1] = system: human renal tissues freshly obtained from surgery; experiment: staining of fresh human renal tumor specimens with IR783 (FIG. 20)
Excerpt: The compounds of the invention can also be used to detect cancer in fresh (or frozen or preserved) cells. In one embodiment of this aspect of the invention, cells are obtained from small needle biopsy, needle aspiration, or other methods as known in the art. The cells after dye uptake is completed can be minced, sliced, smeared onto a slide, or any other preparation. An amount of one or more compound of the invention can be dropped onto the cells or otherwise contacted with the cells (shaken in a tube, for example). […] The cells can be imaged under a fluorescence microscope equipped with a NIR filter, for example.

P69 = experiment: uptake of IR783 in cell lines: human prostate epithelia; assay type: cell-based
Excerpt: as §1

HEK293 = experiment: uptake of IR783 in cell lines: human embryonic kidney epithelial normal cells; assay type: cell-based
Excerpt: as §1

[2] = system: human prostate cancer cells PC3 and ARCaPM in whole blood; experiment: NIR detection of cancer cells spiked into human blood with IR783 (FIG. 17); assay type: cell-based
Method: IR783 can be used to detect and enrich disseminating cancer cells in the blood (FIG. 17). […] 5×10^3 human prostate cancer cells PC3 and ARCaPM were used to spike a 0.5 ml heparinized whole blood from a healthy donor. After incubation at 37° C. for 30 minutes, a gradient centrifugation (Histopaque-1077, Sigma) was applied to remove red blood cells. The remaining cells were washed 5 times in PBS, cells in 50 μl of the 250 μl total volume were smeared on a glass slide for NIR fluorescence detection. […] This method can detect as few as 10 human prostate cancer cells/ml of human blood, a concentration close to that of the estimated numbers of CTC as reported by previous investigators.

HeLa = experiment: uptake of IR783 in cell lines: cervical; assay type: cell-based, human
Excerpt: as §1

CC1(C)C(=CC=C2CCCC(C=CC3=[N+](CCCCS(=O)(=O)[O-])c4ccccc4C3(C)C)=C2Cl)N(CCCCS(=O)(=O)[O-])c2ccccc21.[Na+] [IR783]
cell death in culture (C4-2; 10 uM): did not induce cell death | cell death in culture (C4-2; 100 uM): induced a significant cell death | apoptosis (C4-2; 100 μM, exposure 24 hrs): clearly induced apoptosis | Uptake (HepG2): Strong | distribution in renal tissue, confocal microscopy ([1]; tissues incubated with IR783, washed): concentrated in renal cancer but not normal kidney cells | fluorescence imaging of tumor regions ([1]; tumor, transitional and normal sections): intense uptake and retention | Uptake (P69): Very low | Uptake (HEK293): Low | lowest number of cancer cells detected [2]: 10 human prostate cancer cells/ml of human blood | fluorescence of normal periphery mononucleated cells ([2]; 37° C., 30 minutes): very low to background NIR fluorescence | fluorescence of cancer cells ([2]; 37° C., 30 minutes, whole blood of a healthy donor): strong fluorescence signals in the cytoplasm | Uptake (HeLa): Strong
